{"source": "ChEMBL document CHEMBL1145693", "about": "“Stereochemistry-dependent cytotoxicity of some artemisinin derivatives” (J Nat Prod, 1997)", "type_in_all_cases": "functional, cell-based", "key": {"[1]": {"experiment": "Cytotoxicity against mouse EN2 cells after 72 hrs by MTT assay", "details": "EN2, 72 h"}, "[2]": {"experiment": "Cell cycle arrest in mouse EN2 cells assessed as accumulation at G1 phase after 24 hrs by flow cytometry relative to control"}, "[3]": {"experiment": "Cell cycle arrest in mouse EN2 cells assessed as accumulation at G1 phase after 24 hrs by flow cytometry", "details": "EN2, 24 h"}, "EN2 [4]": {"test_system": "EN2", "experiment": "Cytotoxicity against mouse EN2 cells after 5 mins by MTT assay"}, "[5]": {"experiment": "Cell cycle arrest in mouse EN2 cells assessed as accumulation at G1 phase at 0.4 uM after 24 to 48 hrs by flow cytometry relative to control"}, "[6]": {"experiment": "Cell cycle arrest in mouse EN2 cells assessed as accumulation at G1 phase at 0.4 uM after 12 hrs by flow cytometry relative to control"}, "[7]": {"experiment": "Cytotoxicity against mouse EN2 cells after 24 hrs by MTT assay", "details": "EN2, 24 h"}, "[8]": {"experiment": "Cell cycle arrest in mouse EN2 cells assessed as accumulation at G1 phase after 2 hrs of incubation measured after 24 hrs relative to control"}, "EN2 [9]": {"test_system": "EN2", "experiment": "Cytotoxicity against mouse EN2 cells after 10 mins by MTT assay"}, "[10]": {"experiment": "Cytotoxicity against mouse EN2 cells at 50 uM after 24 hrs by clonogenic assay", "details": "EN2, 24 h"}, "[11]": {"experiment": "Cytotoxicity against mouse EN2 cells after 2 hrs of incubation measured after 6 days by clonogenic assay"}, "[12]": {"experiment": "Cytotoxicity against mouse EN2 cells after 24 hrs by cell-count assay", "details": "EN2, 24 h"}, "[13]": {"experiment": "Cytotoxicity against mouse EN2 cells after 2 hrs of incubation measured after 2 days by MTT assay"}, "EN2 [14]": {"test_system": "EN2", "experiment": "Cytotoxicity against mouse EN2 cells after 15 mins by MTT assay"}, "[15]": {"experiment": "Cytotoxicity against mouse EN2 cells after 2 hrs of incubation measured after 24 hrs by cell-count assay"}, "[16]": {"experiment": "Cytotoxicity against mouse EN2 cells after 24 hrs by clonogenic assay", "details": "EN2, 24 h"}, "[17]": {"experiment": "Cell cycle arrest in mouse EN2 cells assessed as accumulation at S phase after 24 hrs by flow cytometry relative to control"}, "[18]": {"experiment": "Cell cycle arrest in mouse EN2 cells assessed as accumulation at S phase after 48 hrs by flow cytometry relative to control"}}, "note": "Activity calls are given as the source filed them. No cut-off for these calls is given here."}
{"smiles": "C[C@@H]1CC[C@@H]2[C@]34OO[C@](C)(CC[C@@H]13)O[C@H]4OC(=O)[C@@]21CO1", "values": [{"measurement": "IC50", "setting": "[1]", "result": 12.7, "unit": "µM"}]}
{"smiles": "C[C@H]1[C@H](O[C@H]2O[C@@H]3O[C@]4(C)CC[C@H]5[C@H](C)CC[C@@H]([C@H]2C)[C@@]35OO4)O[C@@H]2O[C@]3(C)CC[C@H]4[C@H](C)CC[C@@H]1[C@@]24OO3", "values": [{"measurement": "IC50", "setting": "[1]", "result": 0.11, "unit": "µM"}, {"measurement": "Activity", "setting": "[2]", "result": "Active"}, {"measurement": "IC50", "setting": "[3]", "result": 0.05, "unit": "µM"}, {"measurement": "Activity", "setting": "EN2 [4]", "result": "Active"}, {"measurement": "Activity", "setting": "[5]", "result": "inactive"}, {"measurement": "Activity", "setting": "[6]", "result": "Active"}, {"measurement": "IC50", "setting": "[7]", "result": 0.35, "unit": "µM"}, {"measurement": "Activity", "setting": "[8]", "result": "Dose-dependent effect"}, {"measurement": "IC50", "setting": "[8]", "result": 1, "unit": "µM"}, {"measurement": "Activity", "setting": "EN2 [9]", "result": "Active"}, {"measurement": "IC50", "setting": "[10]", "result": 1, "unit": "µM"}, {"measurement": "IC50", "setting": "[11]", "result": 55.6, "unit": "µM"}, {"measurement": "IC50", "setting": "[12]", "result": 0.54, "unit": "µM"}, {"measurement": "IC50", "setting": "[13]", "result": 3.6, "unit": "µM"}, {"measurement": "Activity", "setting": "EN2 [14]", "result": "Active"}, {"measurement": "IC50", "setting": "[15]", "result": 9.3, "unit": "µM"}]}
{"smiles": "C[C@H]1[C@H](O[C@H]2O[C@@H]3O[C@]4(C)CC[C@H]5[C@H](C)CC[C@@H]([C@H]2C)[C@@]35O4)O[C@@H]2O[C@]3(C)CC[C@H]4[C@H](C)CC[C@@H]1[C@@]24O3", "note": "[listing 1 of 2 here]", "values": [{"measurement": "IC50", "setting": "[1]", "result": 8.9, "unit": "µM"}]}
{"smiles": "C[C@H]1[C@H](O[C@H]2O[C@@H]3O[C@]4(C)CC[C@H]5[C@H](C)CC[C@@H]([C@H]2C)[C@@]35O4)O[C@@H]2O[C@]3(C)CC[C@H]4[C@H](C)CC[C@@H]1[C@@]24O3", "note": "[listing 2 of 2 here]", "values": [{"measurement": "IC50", "setting": "[1]", "result": 99.8, "unit": "µM"}]}
{"smiles": "C[C@@H]1CC[C@H]2[C@@H](C)C(=O)O[C@@H]3O[C@@]4(C)CC[C@@H]1[C@]32O4", "note": "[DEOXYARTEMISININ]", "values": [{"measurement": "IC50", "setting": "[1]", "result": 111, "unit": "µM"}]}
{"smiles": "C[C@H]1[C@@H](O[C@H]2O[C@@H]3O[C@]4(C)CC[C@H]5[C@H](C)CC[C@@H]([C@H]2C)[C@@]35OO4)O[C@@H]2O[C@]3(C)CC[C@H]4[C@H](C)CC[C@@H]1[C@@]24OO3", "values": [{"measurement": "IC50", "setting": "[1]", "result": 2, "unit": "µM"}, {"measurement": "Activity", "setting": "[2]", "result": "Active"}, {"measurement": "IC50", "setting": "[3]", "result": 1, "unit": "µM"}, {"measurement": "IC50", "setting": "[16]", "result": "> 50", "unit": "µM"}, {"measurement": "Activity", "setting": "EN2 [4]", "result": "Active"}, {"measurement": "IC50", "setting": "[7]", "result": 7.2, "unit": "µM"}, {"measurement": "Activity", "setting": "EN2 [9]", "result": "Active"}, {"measurement": "IC50", "setting": "[12]", "result": 8.9, "unit": "µM"}, {"measurement": "Activity", "setting": "EN2 [14]", "result": "Active"}]}
{"smiles": "C[C@@H]1CC[C@@H]2[C@]34OO[C@](C)(CC[C@@H]13)O[C@H]4OC(=O)[C@]21CO1", "values": [{"measurement": "IC50", "setting": "[1]", "result": "> 100", "unit": "µM"}]}
{"smiles": "C[C@@H]1CC[C@H]2[C@@H](C)C(=O)O[C@@H]3O[C@@]4(C)CC[C@@H]1[C@]32OO4", "note": "[ARTEMISININ]", "values": [{"measurement": "IC50", "setting": "[1]", "result": 0.98, "unit": "µM"}, {"measurement": "Activity", "setting": "[2]", "result": "inactive"}, {"measurement": "IC50", "setting": "[3]", "result": 1, "unit": "µM"}, {"measurement": "IC50", "setting": "[16]", "result": "> 50", "unit": "µM"}, {"measurement": "IC50", "setting": "[7]", "result": 11.5, "unit": "µM"}, {"measurement": "Activity", "setting": "[17]", "result": "Dose-dependent effect"}, {"measurement": "IC50", "setting": "[12]", "result": 30, "unit": "µM"}, {"measurement": "Activity", "setting": "[18]", "result": "inactive"}]}
